Data published in paper PMC11768549, “Optimization of Toxicity, Biodegradability, and Skin Irritation in Formulations Containing Mixtures of Anionic and Nonionic Surfactants Combined with Silica Nanoparticles” (Toxics, 2025).

Tested on: Vibrio fischeri
Test: Luminescence inhibition assay in Vibrio fischeri (ISO 11348-2:2007, LumiStox 300)
Type: cell-based
Conditions: 50% bioluminescence inhibition after 30 min exposure, pH 7.0, 2% NaCl; mixtures 1:1
Description: The toxicity measurement is based on the luminous intensity of marine bacteria of the strain V. fischeri NRRLB11177 after exposure to a toxic substance. Measurements were taken using the LumiStox 300 system, which includes a bioluminescence measuring instrument and an incubation unit, in accordance with the ISO 11348-2:2007 guideline. The luminescent bacteria, which were dehydrated and frozen at −18 °C, were reactivated with a suspension provided by Dr. Lange. The assay conditions were maintained at a pH of 7.0 with a NaCl concentration of 2%. Triplicate measurements were taken at incubation times of 30 min. The toxicity values were determined as EC50, representing the surfactant concentrations that inhibit 50% of the bioluminescence after 30 min of exposure. If necessary, the sample was filtered prior to the assay.
(§1) The toxicity of individual anionic and nonionic surfactants on V. fischeri and L. sativum was evaluated, and their EC50 results are presented in Table 2. For V. fischeri, toxicity values are expressed as EC50 values, determined using a logarithmic plot of sample concentration versus the percentage reduction in light intensity after a 30-min exposure period. This indicates the concentration at which there is a 50% reduction in bioluminescence. Similarly, for L. sativum, toxicity values are also expressed as EC50 values, which represent the concentration at which 50% growth inhibition is observed. This was measured by assessing the root and stem elongation after a 72-hour exposure period. The specific growth parameters, such as root length reduction, were used to determine the EC50 values.
(§2) The model of toxic units (MTU) was applied to quantify the interactions between toxicants in binary surfactant mixtures: FAE-R12–14E11 with EC-R12–14E3, FAE-R12–14E11 with EC-R12–14E10, and FAE-R12–14E11 with EC-R8E5. This approach helps predict whether the principles of concentration or response addition apply. The toxic unit for each component in the mixture (TUi) was calculated as the ratio between the concentration of the toxicant in the mixture [i] and its half-maximal effective concentration (EC50i) (Equation (7)). The total toxic unit of the mixture (TUmix) is the sum of the TUi values of the individual components […].(7) TUi=i/EC50i (8) TUmix=TUA+TUB=A/EC50A+B/EC50B
(§3) If the toxicants act independently (response addition), the predicted toxic unit (TUr) is calculated using Equations (9) and (10). If TUr ≈ TUmix, response addition can be expected.(9) If TUA>TUB TUr=1+TUB/TUA (10) If TUA<TUB TUr=1+TUA/TUB

| Substance | EC50, V. fischeri [µg/mL] |
| --- | --- |
| Laureth-11/Myreth-11 [FAE-R12–14E11] | 13.26 ± 3.26 |
| Laureth-11 Carboxylic Acid [EC-R12–14E10] | 14.18 ± 4.32 |
| Capryleth-6 Carboxylic Acid [EC-R8E5] | 32.76 ± 3.60 |
| Laureth-4 Carboxylic Acid [EC-R12–14E3] | 3.58 ± 1.28 |

Tested on: Lepidium sativum
Test: Germination test on Lepidium sativum seeds (ISO 18763:2016), root and stem elongation
Type: in vivo
Conditions: 50% root growth inhibition, 72 h, 25 °C, dark; mixtures 1:1
Description: The germination test on L. sativum (cress) seeds is a static test of acute toxicity. This test allows for evaluating the phytotoxic effects produced in the seed germination process and the development of seedlings during the first days of growth (72 h). The garden cress test with L. sativum was carried out according to ISO-18763:2016 [28]. The inhibition in the elongation of the root and stem was determined.
Briefly, 25 L. sativum seeds were placed in a well-distributed manner in Petri dishes (100 mm Ø) containing filter paper saturated with 5 mL of the test solution. Distilled water was used as a control, and zinc (II) was used as a toxic reference compound. Each Petri dish was covered and sealed to prevent moisture loss. For 72 h, at 25 °C, and in the absence of light, the different samples were incubated in triplicate. Once the incubation was completed, the length of the root and stem of each germinated seed was measured with the help of graph paper. The inhibition of the root and stem growth by the test solutions was assessed in comparison with the control.
as §1, §2, §3

| Substance | EC50, L. sativum (Root) [µg/mL] |
| --- | --- |
| Laureth-11/Myreth-11 [FAE-R12–14E11] | 338.17 ± 13.21 |
| Laureth-11 Carboxylic Acid [EC-R12–14E10] | 32.02 ± 8.90 |
| Capryleth-6 Carboxylic Acid [EC-R8E5] | 53.61 ± 7.20 |
| Laureth-4 Carboxylic Acid [EC-R12–14E3] | 35.40 ± 4.80 |

Same assay, conditions: 50% stem growth inhibition, 72 h, 25 °C, dark; mixtures 1:1

| Substance | EC50, L. sativum (Stem) [µg/mL] |
| --- | --- |
| Laureth-11/Myreth-11 [FAE-R12–14E11] | 97.15 ± 7.14 |
| Laureth-11 Carboxylic Acid [EC-R12–14E10] | 60.11 ± 6.52 |
| Capryleth-6 Carboxylic Acid [EC-R8E5] | 64.77 ± 6.50 |
| Laureth-4 Carboxylic Acid [EC-R12–14E3] | 93.25 ± 8.90 |

Tested on: not listed separately
Test: Static biodegradation test (OECD 301E), DOC removal
Conditions: percentage biodegraded after 50 h of assay, initial 25 mg·L^−1
Description: The static biodegradation tests were conducted according to the OECD 301E guidelines, which focus on the removal of organic compounds measured as dissolved organic carbon (DOC). Solutions of the surfactant and surfactant–co-surfactant mixtures, serving as the sole carbon source for microorganisms, were tested in a mineral medium inoculated and incubated under aerobic conditions in the dark for 28 days. The initial concentration of the test substance for surfactant and surfactant–co-surfactant mixtures was set at 25 mg·L^−1.
The surfactant solution, for which biodegradability was to be determined, was inoculated with 0.5 mL of water from the secondary treatment stage of a sewage treatment plant (STP) operating with activated sludge (plus code: 597G+W2, Granada, Spain). The biodegradation process was monitored by measuring the residual surfactant concentration over time through DOC determinations in samples, filtered through a 0.45 µm Millipore membrane, using the total organic carbon (TOC) analyser Shimadzu VCSH/CSH (Shimadzu Co., Kyoto, Japan). Reference assays were performed with an easily biodegradable surfactant (linear alkylbenzene sulfonate) to determine the activity of the microbial population present in the test medium. […] All samples were tested in duplicate. The experimental setup included two flasks for the blank, two for the reference surfactant, two for the abiotic assay, and two for each of the surfactant concentrations tested.
The biodegradation of surfactants and their binary mixtures was assessed under aerobic conditions following the OECD 301E guidelines for ready biodegradability. The process was tracked by measuring the dissolved organic carbon (DOC) in the samples over time. […] Abiotic control tests, using HgCl2 to inhibit biological activity, confirmed that surfactant concentrations remained at nearly 100% throughout the degradation period. […] Figure 1 illustrates the progression of ultimate biodegradation of the surfactants and binary mixtures over the testing period. The assays were initiated with surfactant concentrations of 25 mg·L^−1.
To compare and quantify the biodegradation test, two key parameters of the biodegradation profiles were defined and analysed: (a) Half-life (t1/2) is the time required for the substrate concentration to decrease by 50% from the start of the biodegradation process. This value is determined using graphical methods based on the biodegradation curve. (b) Surfactant biodegradability (B) is defined as the percentage of surfactant that is biodegraded after 50 h of assay. Half-time and surfactant biodegradability results are shown in Table 5, together with mineralization values obtained using Equation (11).(11) Mineralization (%)=DOCi− [DOC]f/ [DOC]i·100 where
• DOCi is the dissolved organic carbon at the beginning of the test; • DOCf is the dissolved organic carbon at the end of the test.

| Substance | B (surfactant biodegradability) [%] |
| --- | --- |
| Laureth-11/Myreth-11 [FAE-R12–14E11] | 2.40 |
| Laureth-11 Carboxylic Acid [EC-R12–14E10] | 10.30 |
| Capryleth-6 Carboxylic Acid [EC-R8E5] | 9.40 |
| Laureth-4 Carboxylic Acid [EC-R12–14E3] | 1.25 |

Same assay, conditions: time for 50% decrease of substrate, graphical, initial 25 mg·L^−1

| Substance | t1/2 (half-life of biodegradation) [h] |
| --- | --- |
| Laureth-11/Myreth-11 [FAE-R12–14E11] | 185.80 |
| Laureth-11 Carboxylic Acid [EC-R12–14E10] | 130.50 |
| Capryleth-6 Carboxylic Acid [EC-R8E5] | 118.20 |
| Laureth-4 Carboxylic Acid [EC-R12–14E3] | 330.90 |

Tested on: zein
Test: Irritation potential using the modified zein method (zein number)
Set-up: species or system corn
Conditions: each component 0.5% wt., room temperature
Description: The irritant potential of surfactants, their mixtures, and the addition of silica nanoparticles was assessed using a modified zein method. This method is used to assess the potential irritation of chemicals or cosmetics on the skin. It is based on the interaction of a substance with proteins, particularly with the protein zein, which is a protein derived from corn. The modified zein method is recognized as an in vitro alternative to predict dermal irritation without the need to perform tests on animals. This method involves three stages to determine the amount of protein (zein) solubilized in a surfactant-containing solution: (1) zein denaturation, (2) oxidation and mineralization of organic matter, and (3) nitrate content measurement. All experiments were conducted at room temperature and performed in triplicate. For these tests, the final concentration of each component, whether pure or in a mixture, was set at 0.5% and 1% wt. These concentrations reflect typical dosages found in cosmetic, detergent, and personal hygiene products that come into direct contact with the skin. The zein number (ZN), expressed as mg of nitrogen (N) released per 100 g of surfactant solution, was calculated using the following formula: ZN = c/10(2) where c is the nitrogen concentration measured spectrophotometrically in ppm (mg·1000 mL^−1). Given that the density of the testing solution is 1 g·mL^−1, c is ultimately expressed as mg·1000 g^−1. Two control cases were used for validation: a negative control with deionized water and a positive control with 1% wt. sodium lauryl sulphate (SLS), a well-known surfactant with high irritant potential. The zein number (ZN) (Section 2.3) provides an indication of surfactant-induced potential skin irritation. According to the scale established by, surfactants can be classified as non-irritant, moderately irritant, irritant, or strongly irritant. The final concentration of each component, whether individual or in a mixture, was set at 0.5% and 1% wt.

| Substance | ZN 0.5% |
| --- | --- |
| Capryleth-6 Carboxylic Acid [EC-R8E5] | 49.15 ± 3.60 mg of nitrogen (N) released per 100 g of surfactant solution |
| Laureth-4 Carboxylic Acid [EC-R12–14E3] | 152.92 ± 7.25 mg of nitrogen (N) released per 100 g of surfactant solution |

Same assay, conditions: each component 1% wt., room temperature

| Substance | ZN 1% |
| --- | --- |
| Capryleth-6 Carboxylic Acid [EC-R8E5] | 157.9 ± 7.40 mg of nitrogen (N) released per 100 g of surfactant solution |
| Laureth-4 Carboxylic Acid [EC-R12–14E3] | 183.5 ± 5.60 mg of nitrogen (N) released per 100 g of surfactant solution |

Tested on: not given
Test: not given
Set-up: method as in doi:10.1016/j.molliq.2023.122021
Conditions: critical micelle concentration; cited from earlier work

| Substance | CMC (±SD) |
| --- | --- |
| Laureth-11/Myreth-11 [FAE-R12–14E11] | 18.5 ± 2.3 [17] mg·L^−1 |
| Laureth-11 Carboxylic Acid [EC-R12–14E10] | 70.8 ± 7.2 [17] mg·L^−1 |
| Capryleth-6 Carboxylic Acid [EC-R8E5] | 97.9 ± 6.5 [17] mg·L^−1 |
| Laureth-4 Carboxylic Acid [EC-R12–14E3] | 33.7 ± 3.1 [17] mg·L^−1 |

Same assay, conditions: hydrophilic–lipophilic balance; cited from earlier work

| Substance | HLB |
| --- | --- |
| Laureth-11/Myreth-11 [FAE-R12–14E11] | 14.3 [17] |
| Laureth-11 Carboxylic Acid [EC-R12–14E10] | 9.5 [17] |
| Capryleth-6 Carboxylic Acid [EC-R8E5] | 11–14 [17] |
| Laureth-4 Carboxylic Acid [EC-R12–14E3] | 5.5 [17] |
